The values that follow come from patent US20250325552A1, “SUBSTITUTED THIADIAZOLYL DERIVATIVES AS DNA POLYMERASE THETA INHIBITORS” (IDEAYA Biosciences, Inc., priority 2020, published 2025).

The target in test [1] is T1, Polθ theta (1-899) (hPolQ) (Homo sapiens (Human), UniProt O75417). Kind of test: Biological Assay 2: Polθ ATPase activity, NADH oxidation-coupled enzymatic assay (5 nM enzyme, 120 min). Conditions: Polθ (1-899) 5 nM, 100 μM ATP, 300 nM dT50 ssDNA; Examples 269 to 271; read-out: ATPase NADH coupling:Standard Screening:hPolQ IC50. In kind it is biochemical. As to the method: The ability of the compounds (Example 269 to Example 271) of described herein to inhibit ATPase activity of Polθ theta (1-899) was determined using the assay described below.
T1 sequence (O75417 1-899): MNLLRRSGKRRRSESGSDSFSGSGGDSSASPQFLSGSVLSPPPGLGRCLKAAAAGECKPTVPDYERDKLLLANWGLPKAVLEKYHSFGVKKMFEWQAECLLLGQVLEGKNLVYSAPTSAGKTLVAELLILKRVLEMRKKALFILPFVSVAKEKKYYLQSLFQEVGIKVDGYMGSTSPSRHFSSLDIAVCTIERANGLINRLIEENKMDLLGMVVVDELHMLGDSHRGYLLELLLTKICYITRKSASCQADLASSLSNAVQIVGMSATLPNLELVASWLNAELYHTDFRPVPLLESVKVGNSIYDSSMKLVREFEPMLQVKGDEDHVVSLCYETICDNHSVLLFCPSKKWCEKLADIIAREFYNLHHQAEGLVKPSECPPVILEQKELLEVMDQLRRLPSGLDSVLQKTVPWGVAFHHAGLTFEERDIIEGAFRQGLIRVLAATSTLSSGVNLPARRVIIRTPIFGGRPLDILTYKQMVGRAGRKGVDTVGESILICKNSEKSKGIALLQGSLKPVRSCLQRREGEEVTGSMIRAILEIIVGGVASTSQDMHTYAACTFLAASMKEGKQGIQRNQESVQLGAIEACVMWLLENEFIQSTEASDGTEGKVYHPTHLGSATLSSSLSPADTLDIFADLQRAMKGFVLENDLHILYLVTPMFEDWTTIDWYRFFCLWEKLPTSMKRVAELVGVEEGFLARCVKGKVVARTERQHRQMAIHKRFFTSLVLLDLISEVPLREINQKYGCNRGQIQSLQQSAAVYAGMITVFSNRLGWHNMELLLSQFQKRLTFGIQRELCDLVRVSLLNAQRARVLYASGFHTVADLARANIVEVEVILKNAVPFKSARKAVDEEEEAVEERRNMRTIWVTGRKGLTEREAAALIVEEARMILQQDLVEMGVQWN
Polθ Theta ATPase activity was determined by measuring the rate of ATP turn over in a NADH oxidation-coupled enzymatic assay. 11-point dilution series of compounds were used in a 384 well format for the inhibition assays. Polθ theta (1-899) (5 nM) in assay buffer (20 mM Tris HCl (pH 7.80), 80 mM KCl, 10 mM MgCl2, 1 mM DTT, 0.01% BSA, 0.01% Tween, 5% glycerol) was transferred to the test wells (20 μL), except the low control wells (20 μL of assay buffer was added to the low control wells). The plate was then incubated at room temperature for 15 min. An equal volume (20 μL) of 100 μM ATP, 300 nM dT50 (single-stranded DNA (ssDNA) containing 50 thymine bases), 300 μM NADH, 6 mM PEP, 10 U/mL lactate dehydrogenase and U/mL pyruvate kinase in assay buffer was added to all the test wells. The plate was then centrifuged at 1000 rpm for 1 min. The reaction was monitored for 120 min by measuring absorbance (λ=340 nm) in a PHERAstar FSX multimode plate reader every 3 minute. The high control (DMSO with enzyme) with low absorbance intensity represents no inhibition of ATPase reaction while the low control (DMSO with buffer) with high absorbance intensity represents full inhibition of ATPase activity. Slope of the reaction progress curves were used to calculate the rate of ATP hydrolysis. The rates were used to determine the percent inhibition using a four-parameter inhibition model to generate IC50, Hill slope and max inhibition.

For test [2], the target named is T1, Polθ theta (1-899) (hPolQ). Kind of test: Biological Assay 1: Polθ ATPase activity, NADH oxidation-coupled enzymatic assay (10 nM enzyme, 30 min). In kind it is biochemical. Conditions: Polθ (1-899) 10 nM, 100 μM ATP, 300 nM dT50 ssDNA; Examples 1 to 268; read-out: ATPase NADH coupling:Standard Screening:hPolQ IC50. A digest of the protocol: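 Polθ (1-899) at 10 nM was preincubated with compound for 15 min at room temperature in 20 mM Tris pH 7.80, 80 mM KCl, 10 mM MgCl2. An equal volume of 100 μM ATP, 300 nM dT50 ssDNA and a PK/LDH–NADH coupling system was then added. A340 was read each minute for 30 min. IC50 came from rate slopes over 10-point series with a four-parameter fit.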

Broadly, the IC50 is the midpoint of a concentration-inhibition curve. On to `COc1cnc(Cl)cc1-c1cc(C)ncc1C(=O)Nc1nnc(OCC2(F)CN(C)C2)s1` [Example 269, 2′-chloro-N-(5-((3-fluoro-1-methylazetidin-3-yl)methoxy)-1,3,4-thiadiazol-2-yl)-5′-methoxy-6-methyl-(4,4′-bipyridine)-3-carboxamide], for which, in test [1], the IC50 was no more than 200 nM.

Consider `COc1cnc(Cl)cc1-c1cc(C)ncc1C(=O)Nc1nnc(OC[C@@H]2CCN(C(C)=O)C2)s1` [Example 270, (R)—N-(5-((1-acetylpyrrolidin-3-yl)methoxy)-1,3,4-thiadiazol-2-yl)-2′-chloro-5′-methoxy-6-methyl-(4,4′-bipyridine)-3-carboxamide], for which the IC50 in test [1] was in the range of 1000 to 10000 nM.

Take `COc1cnc(Cl)cc1-c1cc(C)ncc1C(=O)Nc1nnc(OC[C@@]2(F)CCOC2)s1` (single isomer, unassigned) [Example 263]: the IC50 in test [2] is no more than 200 nM.

With `COc1cccc(F)c1-c1cc(C)ncc1C(=O)Nc1nnc(OCc2ccc(OC(C)C)cn2)s1` [Example 75, 4-(2-fluoro-6-methoxyphenyl)-N-(5-((5-isopropoxypyridin-2-yl)methoxy)-1,3,4-thiadiazol-2-yl)-6-methylnicotinamide], the IC50 in test [2] is no more than 200 nM.

With `COc1cccc(F)c1-c1cc(C)ncc1C(=O)Nc1nnc(OCc2ccn(C)n2)s1` [Example 15, 4-(2-fluoro-6-methoxyphenyl)-6-methyl-N-(5-((1-methylpyrazol-3-yl)methoxy)-1,3,4-thiadiazol-2-yl)pyridine-3-carboxamide], the IC50 in test [2] is no more than 200 nM.

On to `COc1ccccc1-c1cc(C)ncc1C(=O)Nc1nnc(O[C@H](C)c2ccc(Cl)cn2)s1` [Example 12, (R)—N-(5-(1-(5-chloropyridin-2-yl)ethoxy)-1,3,4-thiadiazol-2-yl)-4-(2-methoxyphenyl)-6-methylnicotinamide], for which the IC50 in test [2] lay in the range of 1000 to 10000 nM.

Consider `COc1ccccc1-c1cnccc1C(=O)Nc1nnc(OCC2CCCc3[nH]ncc32)s1` (centres unmarked) [compound 3, 3-(2-methoxyphenyl)-N-(5-(4,5,6,7-tetrahydro-1H-indazol-4-ylmethoxy)-1,3,4-thiadiazol-2-yl)pyridine-4-carboxamide], for which the IC50 in test [2] is no more than 200 nM.

As to `COc1cccc(F)c1-c1cn2ncc(F)c2cc1C(=O)Nc1nnc(OC[C@H]2CC[C@H](O)CC2)s1` [Example 201, 3-fluoro-6-(2-fluoro-6-methoxyphenyl)-N-(5-(((1r,4r)-4-hydroxycyclohexyl)methoxy)-1,3,4-thiadiazol-2-yl)pyrazolo(1,5-a)pyridine-5-carboxamide], the IC50 in test [2] was no more than 200 nM.

As for `COc1cnc(Cl)cc1-c1cc(C)ncc1C(=O)Nc1nnc(OCC2COC3(COC3)C2)s1` (centres unmarked) [Example 225, N-(5-((2,5-dioxaspiro(3.4)octan-7-yl)methoxy)-1,3,4-thiadiazol-2-yl)-2′-chloro-5′-methoxy-6-methyl-(4,4′-bipyridine)-3-carboxamide], the IC50 in test [2] was no more than 200 nM.

Turning to `COc1cccc(F)c1-c1cc(C)ncc1C(=O)Nc1nnc(OCc2ccc([C@H](C)OC)cn2)s1` [Example 93, 4-(2-fluoro-6-methoxyphenyl)-N-(5-((5-((S)-1-methoxyethyl)pyridin-2-yl)methoxy)-1,3,4-thiadiazol-2-yl)-6-methylnicotinamide], the IC50 in test [2] is no more than 200 nM.

As to `COc1cnc(C2CC2)cc1-c1cc(C)ncc1C(=O)Nc1nnc(OCc2ccc(C(C)(C)O)cn2)s1` [Example 105, 2′-cyclopropyl-N-(5-((5-(2-hydroxypropan-2-yl)pyridin-2-yl)methoxy)-1,3,4-thiadiazol-2-yl)-5′-methoxy-6-methyl-[4,4′-bipyridine]-3-carboxamide], the IC50 in test [2] is no more than 200 nM.

As for `COc1c(C#N)cccc1-c1cc(C)ncc1C(=O)Nc1nnc(OCc2ccc(Cl)cn2)s1` [Example 21, N-(5-((5-chloropyridin-2-yl)methoxy)-1,3,4-thiadiazol-2-yl)-4-(3-cyano-2-methoxyphenyl)-6-methylnicotinamide], in test [2], the IC50 is no more than 200 nM.

In the case of `COc1cnc(C)c(F)c1-c1cc(C)ncc1C(=O)Nc1nnc(OC[C@H]2CC[C@@](C)(O)CC2)s1` [Example 213, 3′-fluoro-N-(5-(((1s,4s)-4-hydroxy-4-methylcyclohexyl)methoxy)-1,3,4-thiadiazol-2-yl)-5′-methoxy-2′,6-dimethyl-(4,4′-bipyridine)-3-carboxamide], the IC50 in test [2] was no more than 200 nM.

For `COc1cc(CO)ccc1-c1cc(C)ncc1C(=O)Nc1nnc(OCc2ccc(Cl)cn2)s1` [Example 31, N-(5-((5-chloropyridin-2-yl)methoxy)-1,3,4-thiadiazol-2-yl)-4-(4-(hydroxymethyl)-2-methoxyphenyl)-6-methylnicotinamide], the half-inhibitory concentration (IC50) in test [2] lay in the range of 200 to 500 nM.

“N-(5-(((S)-1,4-dioxan-2-yl)methoxy)-1,3,4-thiadiazol-2-yl)-3′-fluoro-5′-methoxy-2′,6-dimethyl-(4,4′-bipyridine)-3-carboxamide [Example 241]”: in test [2], the IC50 was no more than 200 nM.

In the case of `COc1cnc(Cl)cc1-c1cc(C)ncc1C(=O)Nc1nnc(OC[C@@]23COC[C@@H]2C3)s1` (single isomer, unassigned) [Example 230], the IC50 in test [2] was no more than 200 nM.

For the compound `COc1cnc(C)cc1-c1cc(C)ncc1C(=O)Nc1nnc(OCC2(F)CC2)s1` [Example 203, N-(5-((1-fluorocyclopropyl)methoxy)-1,3,4-thiadiazol-2-yl)-5′-methoxy-2′,6-dimethyl-(4,4′-bipyridine)-3-carboxamide], the IC50 in test [2] was no more than 200 nM.

Turning to `COc1cnc(C)cc1-c1cc(C)ncc1C(=O)Nc1nnc(OCc2ccc(C(C)(C)OC)cn2)s1` [Example 126, 5′-methoxy-N-(5-((5-(2-methoxypropan-2-yl)pyridin-2-yl)methoxy)-1,3,4-thiadiazol-2-yl)-2′,6-dimethyl-(4,4′-bipyridine)-3-carboxamide], in test [2], the IC50 is no more than 200 nM.

With `COc1cnc(C)cc1-c1cc(C)ncc1C(=O)Nc1nnc(OCc2ccc(C(C)(C)O)cn2)s1` [Example 76, N-(5-((5-(2-hydroxypropan-2-yl)pyridin-2-yl)methoxy)-1,3,4-thiadiazol-2-yl)-5′-methoxy-2′,6-dimethyl-(4,4′-bipyridine)-3-carboxamide], the IC50 in test [2] is no more than 200 nM.

`COc1cnc(Cl)cc1-c1cc(C)ncc1C(=O)Nc1nnc(OCC(C)(C)N2CCNC2=O)s1` [Example 271, 2′-chloro-5′-methoxy-6-methyl-N-(5-(2-methyl-2-(2-oxoimidazolidin-1-yl)propoxy)-1,3,4-thiadiazol-2-yl)-(4,4′-bipyridine)-3-carboxamide]: in test [1], the IC50 is no more than 200 nM.

Take `COc1cnc(Cl)cc1-c1cc(C)ncc1C(=O)Nc1nnc(OCC2(C)COC2)s1` [Example 162, 2′-chloro-5′-methoxy-6-methyl-N-(5-((3-methyloxetan-3-yl)methoxy)-1,3,4-thiadiazol-2-yl)-(4,4′-bipyridine)-3-carboxamide]: the IC50 in test [2] is no more than 200 nM.

As to `COc1cnc(C)cc1-c1cc(C)ncc1C(=O)Nc1nnc(OCc2ccc(C(=O)O)cn2)s1` [Example 90, 6-(((5-(5′-methoxy-2′,6-dimethyl-(4,4′-bipyridine)-3-amido)-1,3,4-thiadiazol-2-yl)oxy)methyl)pyridine-3-carboxylic acid], in test [2], the IC50 is no more than 200 nM.

In the case of `COc1cnc(Cl)cc1-c1cc(C)ncc1C(=O)Nc1nnc(OC[C@H]2C[C@@H]2F)s1` (stereo in doubt) [Example 207, 2′-chloro-N-(5-(((1R,2S)-2-fluorocyclopropyl)methoxy)-1,3,4-thiadiazol-2-yl)-5′-methoxy-6-methyl-(4,4′-bipyridine)-3-carboxamide], the IC50 in test [2] was no more than 200 nM.

For `COc1cnc(C)c(F)c1-c1cc(C)ncc1C(=O)Nc1nnc(OC[C@@H]2CCOC2)s1` [Example 250, 3′-fluoro-5′-methoxy-2′,6-dimethyl-N-(5-(((R)-tetrahydrofuran-3-yl)methoxy)-1,3,4-thiadiazol-2-yl)-(4,4′-bipyridine)-3-carboxamide], the IC50 in test [2] is no more than 200 nM.

As to `COc1cnc(C)cc1-c1cc(C)ncc1C(=O)Nc1nnc(OCc2cnc(CO)cn2)s1` [Example 146, N-(5-((5-(hydroxymethyl)pyrazin-2-yl)methoxy)-1,3,4-thiadiazol-2-yl)-5′-methoxy-2′,6-dimethyl-[4,4′-bipyridine]-3-carboxamide], the half-maximal inhibitory concentration (IC50) in test [2] was no more than 200 nM.

With `COc1cnc(Cl)cc1-c1cc(C)ncc1C(=O)Nc1nnc(OCC23CC(C(C)(C)O)(C2)C3)s1` [Example 143, 2′-chloro-N-(5-((3-(2-hydroxypropan-2-yl)bicyclo(1.1.1)pentan-1-yl)methoxy)-1,3,4-thiadiazol-2-yl)-5′-methoxy-6-methyl-(4,4′-bipyridine)-3-carboxamide], in test [2], the IC50 was no more than 200 nM.
